Source: publication PMC8664216 (PLoS Neglected Tropical Diseases, 2021)

Tests used:
[1] = system: CHIKV-LR trans-replicase system; experiment: CHIKV trans-replicase system, tomato marker by flow cytometry; format: cell-based, Chikungunya virus; details: for Percentage of fluorescent tomato marker expressing cells / Reduction of marker expressing cells compared to EtOH control: Huh7 cells; for Percentage of fluorescent tomato marker expressing cells: read at 24 h, EtOH control 8.18±0.45%
DENV-2 = details: DENV-2, in vitro; cited from earlier work
CHIKV-LR [2] = experiment: Infectious particle production (plaque assay) in siRNA knockdown Huh7 cells; format: cell-based, Chikungunya virus; details: CHIKV MOI 10, 10 μM tomatidine, 9 hpi
CHIKV-LR [3] = experiment: Western blot of CHIKV nsP2, E1 and capsid proteins; format: cell-based, Chikungunya virus; details: 9 hpi
CD98 = experiment: Western blot of CD98 in mock- or CHIKV-infected Huh7 cells; format: cell-based, human; details: 10 μM tomatidine, 9 hpi
CHIKV-LR [4] = experiment: Time-trace and time-chase: intracellular CHIKV RNA copies by Q-RT-PCR; format: cell-based, Chikungunya virus; details: Huh7 cells; for Intracellular viral RNA load: MOI 10, 10 μM tomatidine at time of infection; for Reduction of intracellular RNA load compared to EtOH control: MOI 10, 10 μM tomatidine
Huh7 cells [5] = details: cited from earlier work
p62 = experiment: Western blot of p62 in mock- or CHIKV-infected Huh7 cells; format: cell-based, human; details: 10 μM tomatidine, 9 hpi
TMX2 = experiment: Western blot of TMX2 in mock- or CHIKV-infected Huh7 cells; format: cell-based, human; details: 10 μM tomatidine, 9 hpi
CHIKV-LR [6] = details: in vitro; cited from earlier work
[7] = system: CHIKV in vitro transcribed RNA (CHIK-LR); experiment: Virus cell entry-bypass assay: electroporation of in vitro transcribed CHIKV RNA, plaque assay; format: cell-based, Chikungunya virus; details: Huh7 cells electroporated with CHIKV RNA, 10 μM tomatidine, 16 h post-transfection
Huh7 cells [8] = experiment: ATPLite cytotoxicity assay; details: 7 μM ivermectin, 24 h
[9] = Huh7, MOI 10, 10 μM tomatidine added at 4 hpi
[10] = Huh7, MOI 10, 10 μM tomatidine added at 6 hpi
[11] = Huh7, MOI 10, 10 μM tomatidine added simultaneous to infection
[12] = CHIKV-infected (MOI 10) Huh7 cells

C[C@H]1CC[C@]2(NC1)O[C@H]1C[C@H]3[C@@H]4CC[C@H]5C[C@@H](O)CC[C@]5(C)[C@H]4CC[C@]3(C)[C@H]1[C@@H]2C [tomatidine, Tomatidine]
Percentage of fluorescent tomato marker expressing cells ([1]; 10 μM tomatidine added 1 h post-transfection): 4.4±0.69%
Reduction of marker expressing cells compared to EtOH control ([1]; 10 μM tomatidine, 24 h post-transfection): 46%
EC50 (DENV-2): 820 nM
Inhibition of infectious particle production compared to EtOH control (CHIKV-LR [2]; Huh7 cells with CD98 siRNA knock-down): 91.68%
Inhibition of infectious particle production compared to EtOH control (CHIKV-LR [2]; Huh7 cells with p62 knock-down (siRNA #1)): 86.37%
Inhibition of infectious particle production compared to EtOH control (CHIKV-LR [2]; Huh7 cells with p62 knock-down (siRNA #4)): 90.82%
C (capsid) expression compared to EtOH control (CHIKV-LR [3]; [9]): 50%
E1 expression compared to EtOH control (CHIKV-LR [3]; [9]): 30%
nsP2 expression compared to EtOH control (CHIKV-LR [3]; [9]): 50%
C (capsid) expression compared to EtOH control (CHIKV-LR [3]; [10]): 60%
E1 expression compared to EtOH control (CHIKV-LR [3]; [10]): 40%
nsP2 expression compared to EtOH control (CHIKV-LR [3]; [10]): 60%
C (capsid) expression compared to EtOH control (CHIKV-LR [3]; [11]): 46%
E1 expression compared to EtOH control (CHIKV-LR [3]; [11]): 18%
nsP2 expression compared to EtOH control (CHIKV-LR [3]; [11]): 50%
Increase of CD98 expression compared to solvent control (CD98; [12]): 1.4 fold
Increase of CD98 expression compared to solvent control (CD98; mock-infected Huh7 cells): 1.6 fold
Intracellular viral RNA load (CHIKV-LR [4]; 1 and 2 hpi (all experimental conditions)): ~ 7 Log10 copies
Intracellular viral RNA load (CHIKV-LR [4]; 4 hpi, EtOH 8.0±0.2): 7.8±0.1 Log10 copies
Intracellular viral RNA load (CHIKV-LR [4]; 6 hpi, EtOH 9.7±0.1): 9.2±0.1 Log10 copies
Intracellular viral RNA load (CHIKV-LR [4]; 8 hpi, EtOH 10.3±0.0): 9.9±0.1 Log10 copies
Reduction of intracellular RNA load compared to EtOH control (CHIKV-LR [4]; 6 hpi): 74%
Reduction of intracellular RNA load compared to EtOH control (CHIKV-LR [4]; 8 hpi): 62%
Intracellular viral RNA copy number vs absence of tomatidine (time-chase) (CHIKV-LR [4]; MOI 10, tomatidine added at 6 hpi, RNA at 8 and 10 hpi, without tomatidine 10.3±0.0 and 10.6±0.0 Log10): Comparable results
Highest non-toxic yet antiviral dose (Huh7 cells [5]): 10 µM
Increase of p62 expression compared to solvent control (p62; [12]): 1.8 fold
Increase of p62 expression compared to solvent control (p62; mock-infected Huh7 cells): 1.7 fold
Change in protein expression of TMX2 (TMX2): did not induce any significant change
EC50 (CHIKV-LR [6]): 1300 nM
Reduction of virus titer [7]: 2.6 log
Infectious virus titer ([7]; EtOH control 5.0±0.1): 2.4±0.3 Log10 PFU/mL

ivermectin
Percentage of fluorescent tomato marker expressing cells ([1]; 7 μM ivermectin added 1 h post-transfection): 2.19±0.5%
Reduction of marker expressing cells compared to EtOH control ([1]; 7 μM ivermectin, 24 h post-transfection): 73%
MFI of tomato marker relative to EtOH control ([1]; marker-positive Huh7 cells, 7 μM ivermectin, 24 h post-transfection): 0.4±0.06
Cytotoxicity of the selected concentration (Huh7 cells [8]): non-toxic
